We go through 21 compounds from patent US9403813B2, “Azetidine amide derivatives as orexin receptor antagonists” (ACTELION PHARMACEUTICALS LTD, priority 2013, dated 2016).

Each structure is given as a SMILES string.

For one data set, the system named is humans. The note with it: primary insomnia; cited from earlier work.
The subject of data set [1] is amyloid precursor protein transgenic mice. The note with it: after acute sleep restriction, APP transgenic mice; cited from earlier work.
The test system of data set [2] is rats. The note with it: fasted hungry rats exposed to food odors; cited from earlier work.
In another data set the test system is mouse. The note with it: administered chronically; cited from earlier work.
The test system of data set [3] is rats. The note with it: cited from earlier work.
For data set [4], the system named is rat. The note with it: cited from earlier work.
Data set [5] relates to rats. The note with it: rats treated with the compound; cited from earlier work.
Data set [6] has as its system rat. The note with it: cited from earlier work. The source holds these as a separate data set.
Data set [7] concerns rat. The note with it: cited from earlier work. This is another data set of the same source.
The next data set has as its target human orexin-2 receptor (Homo sapiens (Human), UniProt O43614). Nature of the data set: Intracellular calcium measurements (FLIPR), antagonism of orexin-A response. Type of data set: cell-based. The note with it: CHO cells expressing human orexin-2 receptor, 3 nM orexin-A, geometric mean if determined several times, read-out: IC50 OX2. Put shortly:
(§1)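 CHO cells expressing human OX1 or OX2 receptor, loaded with fluo-4 AM plus probenecid, preincubated with antagonist 120 min before 3 nM orexin-A challenge. FLIPR calcium peak heights compared with agonist-plus-vehicle response. IC50 possibly normalized to on-plate reference; geometric mean of repeat determinations.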

Another data set concerns the target human orexin-1 receptor (Homo sapiens (Human), UniProt O43613). Described as above. The class given is cell-based. The note with it: CHO cells expressing human orexin-1 receptor, 3 nM orexin-A, geometric mean if determined several times, read-out: IC50 OX1. Put shortly: as §1

Sequence of human orexin-2 receptor (O43614 whole entry): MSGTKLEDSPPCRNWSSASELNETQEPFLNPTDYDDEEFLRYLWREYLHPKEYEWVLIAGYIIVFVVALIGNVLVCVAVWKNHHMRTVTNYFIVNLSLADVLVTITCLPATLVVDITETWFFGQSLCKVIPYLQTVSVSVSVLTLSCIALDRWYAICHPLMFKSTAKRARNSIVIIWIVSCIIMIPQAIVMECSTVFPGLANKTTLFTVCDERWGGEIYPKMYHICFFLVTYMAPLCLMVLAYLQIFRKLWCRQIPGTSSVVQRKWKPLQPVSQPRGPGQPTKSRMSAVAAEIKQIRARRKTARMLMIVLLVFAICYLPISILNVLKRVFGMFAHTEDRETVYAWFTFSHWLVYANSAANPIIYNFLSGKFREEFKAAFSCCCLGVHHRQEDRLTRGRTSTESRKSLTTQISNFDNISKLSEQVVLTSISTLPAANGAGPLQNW
Sequence of human orexin-1 receptor (O43613 whole entry): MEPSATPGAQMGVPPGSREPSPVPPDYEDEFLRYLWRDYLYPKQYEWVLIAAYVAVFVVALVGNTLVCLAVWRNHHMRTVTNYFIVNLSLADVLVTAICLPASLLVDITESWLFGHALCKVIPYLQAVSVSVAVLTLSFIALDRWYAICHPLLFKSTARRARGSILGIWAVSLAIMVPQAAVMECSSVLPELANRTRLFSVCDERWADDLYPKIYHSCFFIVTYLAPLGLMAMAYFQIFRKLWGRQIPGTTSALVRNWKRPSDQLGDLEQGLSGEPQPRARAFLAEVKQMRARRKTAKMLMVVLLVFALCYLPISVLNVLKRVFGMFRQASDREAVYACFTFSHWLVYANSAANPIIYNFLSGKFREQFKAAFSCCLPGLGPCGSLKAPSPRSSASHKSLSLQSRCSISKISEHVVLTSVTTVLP

For `CNC(=O)[C@@H](c1ccccc1)N1CCc2cc(OC)c(OC)cc2[C@@H]1CCc1ccc(C(F)(F)F)cc1` [(2R)-2-{(1S)-6,7-dimethoxy-1-[2-(4-trifluoromethyl-phenyl)-ethyl]-3,4-dihydro-1H-isoquinolin-2-yl}-N-methyl-2-phenyl-acetamide], the clinical efficacy entry in the data set on humans was “showed clinical efficacy”. In data set [1], the “brain levels of amyloid-beta and plaque deposition” value is “decreased brain levels of amyloid-beta (Aβ) as well as Aβ plaque deposition”. Further, the “natural activation induced by orexin A” value in the data set on rats [2] was “attenuate the natural activation induced by orexin A”. Besides, in the data set with mouse, the antidepressant-like activity result is “induce antidepressant-like activity”. For the same compound, the “cardiovascular responses to conditioned fear and novelty exposure” value with rats [3] was “attenuated cardiovascular responses”. Further, in the data set with rat [4], the “alertness (active wake and locomotion)” value is listed as “decrease alertness”; the “time spent in REM and NREM sleep” value was “dose-dependently increase the time spent in both REM and NREM sleep”. Further, the learning and memory result in the data set with rats [5] was “intact declarative and non-declarative learning and memory”. For the same compound, the “activity in fear-potentiated startle paradigm” value in the data set on rat [6] is listed as “active”. The “activity in nicotine self-administration” value with rat [7] is “displayed pharmacological activity”.

In the case of `COc1cc(C(=O)N2CC[C@H]2c2noc(-c3cccc(Cl)c3C)n2)c(-c2ncccn2)cc1C` [Example 116, {(S)-2-[5-(3-Chloro-2-methyl-phenyl)-[1,2,4]oxadiazol-3-yl]-azetidin-1-yl}-(5-methoxy-4-methyl-2-pyrimidin-2-yl-phenyl)-methanone], the IC50 (commonly the midpoint of a concentration-inhibition curve) on human orexin-2 receptor was 5 nM; on human orexin-1 receptor it was 561 nM.

On to `Cc1ccc(-c2ncccn2)c(C(=O)N2CC[C@H]2c2noc(-c3cccc(Cl)c3C)n2)c1` [Example 117, {(S)-2-[5-(3-Chloro-2-methyl-phenyl)-[1,2,4]oxadiazol-3-yl]-azetidin-1-yl}-(5-methyl-2-pyrimidin-2-yl-phenyl)-methanone], for which the IC50 at human orexin-2 receptor worked out at 32 nM; on human orexin-1 receptor, 606 nM.

With `COc1c(Cl)cccc1-c1nc([C@@H]2CCN2C(=O)c2ccc(C)cc2-n2nccn2)no1` [Example 118, {(S)-2-[5-(3-Chloro-2-methoxy-phenyl)-[1,2,4]oxadiazol-3-yl]-azetidin-1-yl}-(4-methyl-2-[1,2,3]triazol-2-yl-phenyl)-methanone], the IC50 on human orexin-2 receptor amounted to 4 nM; at human orexin-1 receptor, 81 nM.

On to `COc1c(Cl)cccc1-c1nc([C@@H]2CCN2C(=O)c2ccc(Cl)cc2-n2nccn2)no1` [Example 119, {(S)-2-[5-(3-Chloro-2-methoxy-phenyl)-[1,2,4]oxadiazol-3-yl]-azetidin-1-yl}-(4-chloro-2-[1,2,3]triazol-2-yl-phenyl)-methanone], for which the IC50 on human orexin-2 receptor is 4 nM; at human orexin-1 receptor it was 38 nM.

`Cc1ccc(-n2nccn2)c(C(=O)N2CC[C@H]2c2nnc(-c3ccccc3)[nH]2)c1` [Example 120, (5-Methyl-2-[1,2,3]triazol-2-yl-phenyl)-[(S)-2-(5-phenyl-4H-[1,2,4]triazol-3-yl)-azetidin-1-yl]-methanone]: the IC50 at human orexin-2 receptor was 450 nM; on human orexin-1 receptor it was 13400 nM.

With `Cc1ccc(C(=O)N2CC[C@H]2c2nnc(-c3ccccc3)[nH]2)c(-n2nccn2)c1` [Example 121, (4-Methyl-2-[1,2,3]triazol-2-yl-phenyl)-[(S)-2-(5-phenyl-4H-[1,2,4]triazol-3-yl)-azetidin-1-yl]-methanone], the IC50 amounted to 322 nM at human orexin-2 receptor and 9070 nM at human orexin-1 receptor.

Take `CCOc1ncccc1-c1nnc([C@@H]2CCN2C(=O)c2cc(C)ccc2-n2nccn2)[nH]1` [Example 122, {(S)-2-[5-(2-Ethoxy-pyridin-3-yl)-4H-[1,2,4]triazol-3-yl]-azetidin-1-yl}-(5-methyl-2-[1,2,3]triazol-2-yl-phenyl)-methanone]: the IC50 at human orexin-2 receptor was 92 nM; at human orexin-1 receptor, 2300 nM.

For the compound `CCOc1ncccc1-c1nnc([C@@H]2CCN2C(=O)c2ccc(C)cc2-n2nccn2)[nH]1` [Example 123, {(S)-2-[5-(2-Ethoxy-pyridin-3-yl)-4H-[1,2,4]triazol-3-yl]-azetidin-1-yl}-(4-methyl-2-[1,2,3]triazol-2-yl-phenyl)-methanone], the results for the IC50 at human orexin-2 receptor and on human orexin-1 receptor were 316 nM and 2040 nM, respectively.

In the case of `Cc1ccc(-n2nccn2)c(C(=O)N2CC[C@H]2c2nnc(-c3cccc(Cl)c3C)[nH]2)c1` [Example 124, {(S)-2-[5-(3-Chloro-2-methyl-phenyl)-4H-[1,2,4]triazol-3-yl]-azetidin-1-yl}-(5-methyl-2-[1,2,3]triazol-2-yl-phenyl)-methanone], the results for the IC50 on human orexin-2 receptor and at human orexin-1 receptor were 238 nM and 5880 nM, respectively.

Take `Cc1ccc(-n2nccn2)c(C(=O)N2CC[C@H]2c2nnc(-c3ccccc3OC(F)(F)F)[nH]2)c1` [Example 125, (5-Methyl-2-[1,2,3]triazol-2-yl-phenyl)-{(S)-2-[5-(2-trifluoromethoxy-phenyl)-4H-[1,2,4]triazol-3-yl]-azetidin-1-yl}-methanone]: the IC50 on human orexin-2 receptor amounted to 56 nM; at human orexin-1 receptor, 2430 nM.

`COc1c(Cl)cccc1-c1nnc([C@@H]2CCN2C(=O)c2cc(C)ccc2-n2nccn2)[nH]1` [Example 126, {(S)-2-[5-(3-Chloro-2-methoxy-phenyl)-4H-[1,2,4]triazol-3-yl]-azetidin-1-yl}-(5-methyl-2-[1,2,3]triazol-2-yl-phenyl)-methanone]: the results for the IC50 on human orexin-2 receptor and at human orexin-1 receptor were 170 nM and 7230 nM, respectively.

For the compound `Cc1ccc(C(=O)N2CC[C@H]2c2nnc(-c3ccccc3OC(F)(F)F)[nH]2)c(-n2nccn2)c1` [Example 127, (4-Methyl-2-[1,2,3]triazol-2-yl-phenyl)-{(S)-2-[5-(2-trifluoromethoxy-phenyl)-4H-[1,2,4]triazol-3-yl]-azetidin-1-yl}-methanone], the IC50 on human orexin-2 receptor was found to be 11 nM; at human orexin-1 receptor, 866 nM.

As to `Cc1cc(C(=O)N2CC[C@H]2c2nnc(-c3ccccc3OC(F)(F)F)[nH]2)c(-n2nccn2)cc1C` [Example 128, (4,5-Dimethyl-2-[1,2,3]triazol-2-yl-phenyl)-{(S)-2-[5-(2-trifluoromethoxy-phenyl)-4H-[1,2,4]triazol-3-yl]-azetidin-1-yl}-methanone], the concentration for half-maximal inhibition (IC50) at human orexin-2 receptor came to 9 nM; on human orexin-1 receptor it was 414 nM.

As for `COc1cc(C(=O)N2CC[C@H]2c2nnc(-c3ccccc3OC(F)(F)F)[nH]2)c(-n2nccn2)cc1C` [Example 129, (5-Methoxy-4-methyl-2-[1,2,3]triazol-2-yl-phenyl)-{(S)-2-[5-(2-trifluoromethoxy-phenyl)-4H-[1,2,4]triazol-3-yl]-azetidin-1-yl}-methanone], the results for the IC50 on human orexin-2 receptor and at human orexin-1 receptor were 6 nM and 454 nM, respectively.

For the compound `Cc1cc(-n2nccn2)c(C(=O)N2CC[C@H]2c2nnc(-c3ccccc3OC(F)(F)F)[nH]2)cc1Cl` [Example 130, (5-Chloro-4-methyl-2-[1,2,3]triazol-2-yl-phenyl)-{(S)-2-[5-(2-trifluoromethoxy-phenyl)-4H-[1,2,4]triazol-3-yl]-azetidin-1-yl}-methanone], the IC50 came out at 5 nM at human orexin-2 receptor and 245 nM on human orexin-1 receptor.

Consider `COc1cc(C(=O)N2CC[C@H]2c2nnc(-c3ccccc3OC(F)(F)F)[nH]2)c(-n2nccn2)cc1Cl` [Example 131, (4-Chloro-5-methoxy-2-[1,2,3]triazol-2-yl-phenyl)-{(S)-2-[5-(2-trifluoromethoxy-phenyl)-4H-[1,2,4]triazol-3-yl]-azetidin-1-yl}-methanone], for which the IC50 at human orexin-2 receptor was found to be 5 nM; at human orexin-1 receptor it was 497 nM.

Take `O=C(c1ccc(Cl)cc1-n1nccn1)N1CC[C@H]1c1nnc(-c2ccccc2OC(F)(F)F)[nH]1` [Example 132, (4-Chloro-2-[1,2,3]triazol-2-yl-phenyl)-{(S)-2-[5-(2-trifluoromethoxy-phenyl)-4H-[1,2,4]triazol-3-yl]-azetidin-1-yl}-methanone]: the results for the IC50 on human orexin-2 receptor and on human orexin-1 receptor were 16 nM and 315 nM, respectively.

Turning to `O=C(c1ccc(C(F)(F)F)cc1-n1nccn1)N1CC[C@H]1c1nnc(-c2ccccc2OC(F)(F)F)[nH]1` [Example 133, (2-[1,2,3]Triazol-2-yl-4-trifluoromethyl-phenyl)-{(S)-2-[5-(2-trifluoromethoxy-phenyl)-4H-[1,2,4]triazol-3-yl]-azetidin-1-yl}-methanone], the IC50 at human orexin-2 receptor is 17 nM; at human orexin-1 receptor it was 364 nM.

In the case of `Cc1ccc(-c2ccccc2)c(C(=O)N2CC[C@H]2c2nnc(-c3ccccc3OC(F)(F)F)[nH]2)c1` [Example 134, (4-Methyl-biphenyl-2-yl)-{(S)-2-[5-(2-trifluoromethoxy-phenyl)-4H-[1,2,4]triazol-3-yl]-azetidin-1-yl}-methanone], the IC50 on human orexin-2 receptor worked out at 39 nM; on human orexin-1 receptor it was 563 nM.

In the case of `Cc1ccc(-c2ncccn2)c(C(=O)N2CC[C@H]2c2nnc(-c3ccccc3OC(F)(F)F)[nH]2)c1` [Example 135, (5-Methyl-2-pyrimidin-2-yl-phenyl)-{(S)-2-[5-(2-trifluoromethoxy-phenyl)-4H-[1,2,4]triazol-3-yl]-azetidin-1-yl}-methanone], the IC50 is 348 nM at human orexin-2 receptor and 2000 nM on human orexin-1 receptor.
